≈ marks a conversion by molar mass, not a printed value.
Key:
Assay type in all cases: functional
Pyricularia grisea [1] = assay: Fungicidal activity against Magnaporthe grisea in rice plant assessed as prevention from rice blast disease measured as lesions under greenhouse at > 200 ppm for 8 days by foliar spray compound treated before inoculation
Pyricularia grisea [2] = assay: Fungicidal activity against Magnaporthe grisea in rice plant assessed as prevention from rice blast disease measured as lesions under greenhouse at > 200 ppm for 8 days by soil drench compound treated before inoculation
Pyricularia grisea [3] = assay: Fungicidal activity against Magnaporthe grisea in rice plant assessed as rice blast disease measured as damage under greenhouse by foliar spray for 8 days compound treated before inoculation; conditions: 192 h
Pyricularia grisea [4] = assay: Fungicidal activity against Magnaporthe grisea in rice plant assessed as rice blast disease measured as damage under greenhouse at 1.6 ppm for 8 days by foliar spray compound treated before inoculation
Pyricularia grisea [5] = assay: Fungicidal activity against Magnaporthe grisea in rice plant assessed as rice blast disease measured as damage under greenhouse at 6.3 ppm for 8 days by foliar spray compound treated before inoculation
Pyricularia grisea [6] = assay: Fungicidal activity against Magnaporthe grisea in rice plant assessed as rice blast disease measured as damage under greenhouse at 25 ppm for 8 days by foliar spray compound treated before inoculation
Pyricularia grisea [7] = assay: Fungicidal activity against Magnaporthe grisea in rice plant assessed as rice blast disease measured as damage under greenhouse at 0.4 ppm for 8 days by foliar spray compound treated before inoculation
Pyricularia grisea [8] = assay: Fungicidal activity against Magnaporthe grisea in rice plant assessed as prevention from rice blast disease measured as lesions under greenhouse at 3.1 ppm for 8 days by foliar spray compound treated before inoculation
Pyricularia grisea [9] = assay: Fungicidal activity against Magnaporthe grisea in rice plant assessed as prevention from rice blast disease measured as lesions under greenhouse at 50 ppm for 8 days by soil drench compound treated before inoculation
Pyricularia grisea [10] = assay: Fungicidal activity against Magnaporthe grisea in rice plant assessed as prevention from rice blast disease measured as lesions under greenhouse at 12.5 ppm for 8 days by foliar spray compound treated before inoculation
Pyricularia grisea [11] = assay: Fungicidal activity against Magnaporthe grisea in rice plant assessed as prevention from rice blast disease measured as lesions under greenhouse at 12.5 ppm for 8 days by soil drench compound treated before inoculation
Pyricularia grisea [12] = assay: Fungicidal activity against Magnaporthe grisea in rice plant assessed as prevention from rice blast disease measured as lesions under greenhouse at 50 ppm for 8 days by foliar spray compound treated before inoculation
Pyricularia grisea [13] = assay: Fungicidal activity against Magnaporthe grisea in rice plant assessed as prevention from rice blast disease measured as lesions under greenhouse at 200 ppm for 8 days by soil drench compound treated before inoculation
Pyricularia grisea [14] = assay: Fungicidal activity against Magnaporthe grisea in rice plant assessed as prevention from rice blast disease measured as lesions under greenhouse at 200 ppm for 8 days by foliar spray compound treated before inoculation

CC(NC(=O)C(C#N)C(C)(C)C)c1ccc(Cl)cn1 (stereo unspecified)
Activity (Pyricularia grisea [1]): <=10%
Activity (Pyricularia grisea [2]): <=10%

C[C@@H](NC(=O)[C@@H](C#N)C(C)(C)C)c1ccc(Cl)cc1Cl
MIC (Pyricularia grisea [3]): 0.16 µg/mL (≈ 0.511 µM)
Activity (Pyricularia grisea [4]): 2%
Activity (Pyricularia grisea [5]): 3%
Activity (Pyricularia grisea [6]): 4%
Activity (Pyricularia grisea [7]): 0%

C=CC(C)(C)C(C#N)C(=O)NC(C)c1ccc(Cl)cc1OC (stereo unspecified)
Activity (Pyricularia grisea [8]): <=10%
Activity (Pyricularia grisea [9]): <=10%

C[C@H](NC(=O)[C@H](C#N)C(C)(C)C)c1ccc(Cl)cc1Cl
MIC (Pyricularia grisea [3]): > 20 µg/mL
Activity (Pyricularia grisea [4]): 0%
Activity (Pyricularia grisea [5]): 0%
Activity (Pyricularia grisea [6]): 0%
Activity (Pyricularia grisea [7]): 0%

C=CC(C)(C)C(C#N)C(=O)NC(C)c1ccc(Cl)cc1Cl (stereo unspecified)
Activity (Pyricularia grisea [9]): <=10%
Activity (Pyricularia grisea [10]): <=10%

C=CC(C)(C)C(C#N)C(=O)NC(C)c1ccc(Cl)cc1C (stereo unspecified)
Activity (Pyricularia grisea [2]): <=10%

C[C@@H](NC(=O)[C@H](C#N)C(C)(C)C)c1ccc(Cl)cc1Cl
MIC (Pyricularia grisea [3]): 0.04 µg/mL (≈ 0.128 µM)
Activity (Pyricularia grisea [4]): 4%
Activity (Pyricularia grisea [5]): 4%
Activity (Pyricularia grisea [6]): 5%
Activity (Pyricularia grisea [7]): 3%

C[C@H](NC(=O)[C@@H](C#N)C(C)(C)C)c1ccc(Cl)cc1Cl
MIC (Pyricularia grisea [3]): > 20 µg/mL
Activity (Pyricularia grisea [4]): 0%
Activity (Pyricularia grisea [5]): 0%
Activity (Pyricularia grisea [6]): 0%
Activity (Pyricularia grisea [7]): 0%

C=CC(C)(C)C(C#N)C(=O)NC(C)c1ccc(Cl)cc1F (stereo unspecified)
Activity (Pyricularia grisea [11]): <=10%
Activity (Pyricularia grisea [8]): <=10%

CC(NC(=O)C(C#N)C(C)(C)C)c1ccc(Cl)c(Cl)c1 (stereo unspecified)
Activity (Pyricularia grisea [9]): <=10%
Activity (Pyricularia grisea [12]): <=10%

CC(NC(=O)C(C#N)C(C)(C)C)c1ccc(Cl)cc1Cl (stereo unspecified)
Activity (Pyricularia grisea [8]): <=10%
Activity (Pyricularia grisea [9]): <=10%

CC(NC(=O)C(C#N)C(C)(C)C)c1ccc(OC(F)(F)C(F)F)cc1 (stereo unspecified)
Activity (Pyricularia grisea [13]): <=10%
Activity (Pyricularia grisea [14]): <=10%

CC(NC(=O)C(C#N)C(C)(C)C)c1ccccc1Cl (stereo unspecified)
Activity (Pyricularia grisea [13]): <=10%

CC(NC(=O)C(C#N)C(C)(C)C)c1cccc(Cl)c1 (stereo unspecified)
Activity (Pyricularia grisea [13]): <=10%
Activity (Pyricularia grisea [14]): <=10%

CC(NC(=O)C(C#N)C(C)(C)C)c1ccc(OC(F)F)cc1 (stereo unspecified)
Activity (Pyricularia grisea [9]): <=10%
Activity (Pyricularia grisea [12]): <=10%

CC(NC(=O)C(C#N)C(C)(C)C)c1ccc(OC(F)(F)F)cc1 (stereo unspecified)
Activity (Pyricularia grisea [9]): <=10%
Activity (Pyricularia grisea [12]): <=10%

CC(NC(=O)C(C#N)C(C)(C)C)c1ccc(C(F)(F)F)cc1 (stereo unspecified)
Activity (Pyricularia grisea [8]): <=10%
Activity (Pyricularia grisea [9]): <=10%

Cc1ccc(C(C)NC(=O)C(C#N)C(C)(C)C)cc1 (stereo unspecified)
Activity (Pyricularia grisea [8]): <=10%
Activity (Pyricularia grisea [9]): <=10%

COc1ccc(C(C)NC(=O)C(C#N)C(C)(C)C)cc1 (stereo unspecified)
Activity (Pyricularia grisea [13]): <=10%
Activity (Pyricularia grisea [14]): <=10%

CC(C)(C)C(C#N)C(=O)Nc1ccc(Cl)cc1 (stereo unspecified)
Activity (Pyricularia grisea [1]): <=10%
Activity (Pyricularia grisea [2]): <=10%

CC(C)(C)C(C#N)C(=O)NCc1ccc(Cl)cc1 (stereo unspecified)
Activity (Pyricularia grisea [13]): <=10%
Activity (Pyricularia grisea [14]): <=10%

CCC(NC(=O)C(C#N)C(C)(C)C)c1ccc(Cl)cc1 (stereo unspecified)
Activity (Pyricularia grisea [1]): <=10%
Activity (Pyricularia grisea [2]): <=10%

CC(NC(=O)C(C#N)C(C)(C)C)c1ccc(Cl)nc1 (stereo unspecified)
Activity (Pyricularia grisea [14]): <=10%
Activity (Pyricularia grisea [2]): <=10%

CC(NC(=O)C(C#N)C(C)(C)C)c1ccc(Cl)s1 (stereo unspecified)
Activity (Pyricularia grisea [14]): <=10%
Activity (Pyricularia grisea [2]): <=10%

CC(NC(=O)C(C#N)C(C)(C)C)c1ccccc1 (stereo unspecified)
Activity (Pyricularia grisea [14]): <=10%
Activity (Pyricularia grisea [2]): <=10%

CC(NC(=O)C(C#N)C(C)(C)C)c1ccc(F)cc1 (stereo unspecified)
Activity (Pyricularia grisea [14]): <=10%
Activity (Pyricularia grisea [2]): <=10%

CC(NC(=O)C(C#N)C(C)(C)C)c1ccc(Br)cc1 (stereo unspecified)
Activity (Pyricularia grisea [11]): <=10%
Activity (Pyricularia grisea [8]): <=10%

CC(C)NC(=O)C(C#N)C(C)(C)C (stereo unspecified)
Activity (Pyricularia grisea [1]): <=10%
Activity (Pyricularia grisea [2]): <=10%

CC(C)C(C)NC(=O)C(C#N)C(C)(C)C (stereo unspecified)
Activity (Pyricularia grisea [1]): <=10%
Activity (Pyricularia grisea [2]): <=10%

CC(NC(=O)C(C#N)=C1CCCC1)c1ccc(Cl)cc1 (stereo unspecified)
Activity (Pyricularia grisea [13]): <=10%
Activity (Pyricularia grisea [14]): <=10%

CC(NC(=O)C(C#N)=C1CCCCC1)c1ccc(Cl)cc1 (stereo unspecified)
Activity (Pyricularia grisea [1]): <=10%
Activity (Pyricularia grisea [2]): <=10%

CCC(CC)=C(C#N)C(=O)NC(C)c1ccc(Cl)cc1 (stereo unspecified)
Activity (Pyricularia grisea [13]): <=10%
Activity (Pyricularia grisea [12]): <=10%

CC(NC(=O)C1(C#N)CC1(C)C)c1ccc(Cl)cc1 (stereo unspecified)
Activity (Pyricularia grisea [1]): <=10%
Activity (Pyricularia grisea [2]): <=10%
